Test results published in ChEMBL document CHEMBL1201862, “PubChem BioAssay data set” (2004).
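In this assay, cells in 96-well plates receive the compound at five concentrations for 48 hours. Endpoints are linearly interpolated between the surrounding concentrations. Abbreviation: GI50, concentration required for 50% inhibition of growth.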 Active and inactive are the calls of the source. Rule as the data show it: active = GI50 up to about 1.1 µM and inactive = higher.

Legend:
Experiment in all cases: DTP human tumour cell line panel, 48 h
MCF7 = tested on: MCF7
K562 = tested on: K562
IGROV-1 = tested on: IGROV-1
HOP-62 = tested on: HOP-62
HCT-15 = tested on: HCT-15
HL-60 = tested on: HL-60
DMS-114 = tested on: DMS-114
SNB-78 = tested on: SNB-78
UO-31 = tested on: UO-31
M19-MEL = tested on: M19-MEL
SK-MEL-28 = tested on: SK-MEL-28
CCRF-CEM = tested on: CCRF-CEM
DLD-1 = tested on: DLD-1
NCI-H226 = tested on: NCI-H226
SNB-75 = tested on: SNB-75
OVCAR-4 = tested on: OVCAR-4
NCI-H522 = tested on: NCI-H522
SF-539 = tested on: SF-539
SN12C = tested on: SN12C
SK-MEL-5 = tested on: SK-MEL-5
OVCAR-5 = tested on: OVCAR-5
Malme-3M = tested on: Malme-3M
A549 = tested on: A549
COLO 205 = tested on: COLO 205
KM-20L2 = tested on: KM-20L2
OVCAR-8 = tested on: OVCAR-8
DMS-273 = tested on: DMS-273
KM12 = tested on: KM12
HT-29 = tested on: HT-29
SF-295 = tested on: SF-295
NCI-H23 = tested on: NCI-H23
SW-620 = tested on: SW-620
HOP-92 = tested on: HOP-92
OVCAR-3 = tested on: OVCAR-3
MOLT-4 = tested on: MOLT-4
SK-OV-3 = tested on: SK-OV-3
XF498 = tested on: XF498
RPMI-8226 = tested on: RPMI-8226
UACC-257 = tested on: UACC-257
NCI/ADR-RES = tested on: NCI/ADR-RES
HCT-116 = tested on: HCT-116
U-251 = tested on: U-251
SF-268 = tested on: SF-268
EKVX = tested on: EKVX
SK-MEL-2 = tested on: SK-MEL-2
A498 = tested on: A498
LOX IMVI = tested on: LOX IMVI
SNB-19 = tested on: SNB-19
RXF 393 = tested on: RXF 393
HCC 2998 = tested on: HCC 2998
NCI-H460 = tested on: NCI-H460
786-0 = tested on: 786-0
ACHN = tested on: ACHN
TK-10 = tested on: TK-10
M14 = tested on: M14
UACC-62 = tested on: UACC-62
LXFL 529 = tested on: LXFL 529
CAKI-1 = tested on: CAKI-1
SR = tested on: SR

With `COc1cc(-c2ccc(/N=N/c3c(S(=O)(=O)O)cc4cc(S(=O)(=O)O)cc(N)c4c3O)c(OC)c2)ccc1/N=N/c1c(S(=O)(=O)O)cc2cc(S(=O)(=O)O)cc(N)c2c1O` the GI50 (MCF7) was > 100 µM (inactive), the GI50 (K562) was > 78.7 µM (inactive) and the GI50 (IGROV-1) was > 100 µM (inactive). The GI50 (HOP-62) was > 100 µM (inactive), the GI50 (HCT-15) was 59.6 µM and the GI50 (HL-60) was 29.9 µM (inactive). For the same compound, the GI50 (DMS-114) was 73.1 µM (inactive), the GI50 (SNB-78) was 78.3 µM (inactive) and the GI50 (UO-31) was > 80.4 µM (inactive). The GI50 (M19-MEL) was > 100 µM (inactive), the GI50 (SK-MEL-28) was > 100 µM (inactive) and the GI50 (CCRF-CEM) was > 88.3 µM (inactive). The GI50 (DLD-1) was > 94 µM (inactive), the GI50 (NCI-H226) was > 62.1 µM (inactive) and the GI50 (SNB-75) was 37.4 µM (inactive). The GI50 (OVCAR-4) was > 57 µM (inactive), the GI50 (NCI-H522) was > 100 µM (inactive) and the GI50 (SF-539) was > 100 µM (inactive). The GI50 (SN12C) was > 100 µM (inactive), the GI50 (SK-MEL-5) was > 100 µM (inactive) and the GI50 (OVCAR-5) was > 100 µM (inactive). The GI50 (Malme-3M) was > 100 µM (inactive), the GI50 (A549) was > 77.4 µM (inactive) and the GI50 (COLO 205) was > 100 µM (inactive). For the same compound, the GI50 (KM-20L2) was 35 µM (inactive), the GI50 (OVCAR-8) was > 100 µM (inactive) and the GI50 (DMS-273) was > 74.6 µM (inactive). For the same compound, the GI50 (KM12) was > 86.1 µM (inactive), the GI50 (HT-29) was > 62.1 µM (inactive) and the GI50 (SF-295) was > 100 µM (inactive). The GI50 (NCI-H23) was > 100 µM (inactive), the GI50 (SW-620) was 73.5 µM (inactive) and the GI50 (HOP-92) was 34 µM (inactive). The GI50 (OVCAR-3) was > 62.8 µM (inactive), the GI50 (MOLT-4) was > 82.6 µM (inactive) and the GI50 (SK-OV-3) was > 100 µM (inactive). For the same compound, the GI50 (XF498) was 6.89 µM (inactive), the GI50 (RPMI-8226) was > 100 µM (inactive) and the GI50 (UACC-257) was > 100 µM (inactive). The GI50 (NCI/ADR-RES) was > 100 µM (inactive), the GI50 (HCT-116) was > 100 µM (inactive) and the GI50 (U-251) was > 100 µM (inactive). For the same compound, the GI50 (SF-268) was > 100 µM (inactive), the GI50 (EKVX) was 88.5 µM (inactive) and the GI50 (SK-MEL-2) was > 100 µM (inactive). For the same compound, the GI50 (A498) was > 100 µM (inactive), the GI50 (LOX IMVI) was > 90.6 µM (inactive) and the GI50 (SNB-19) was > 100 µM (inactive). The GI50 (RXF 393) was > 100 µM (inactive), the GI50 (HCC 2998) was > 100 µM (inactive) and the GI50 (NCI-H460) was > 100 µM (inactive).
For `CS(=O)(=O)c1ccc(COP(N)(=O)N(CCCl)CCCl)cc1` (configuration not stated), the GI50 (786-0) was > 100 µM (inactive), the GI50 (K562) was > 100 µM (inactive) and the GI50 (ACHN) was > 100 µM (inactive). The GI50 (IGROV-1) was > 100 µM (inactive), the GI50 (HOP-62) was > 100 µM (inactive) and the GI50 (HCT-15) was > 100 µM. The GI50 (DMS-114) was > 100 µM (inactive), the GI50 (SNB-78) was > 100 µM (inactive) and the GI50 (UO-31) was > 100 µM (inactive). For the same compound, the GI50 (M19-MEL) was > 100 µM (inactive), the GI50 (SK-MEL-28) was > 100 µM (inactive) and the GI50 (CCRF-CEM) was > 100 µM (inactive). The GI50 (DLD-1) was > 100 µM (inactive), the GI50 (NCI-H226) was > 100 µM (inactive) and the GI50 (SNB-75) was > 100 µM (inactive). For the same compound, the GI50 (OVCAR-4) was > 100 µM (inactive), the GI50 (NCI-H522) was > 100 µM (inactive) and the GI50 (TK-10) was > 100 µM (inactive). For the same compound, the GI50 (SF-539) was > 100 µM (inactive), the GI50 (SN12C) was > 100 µM (inactive) and the GI50 (SK-MEL-5) was > 100 µM (inactive). The GI50 (OVCAR-5) was > 100 µM (inactive), the GI50 (Malme-3M) was > 100 µM (inactive) and the GI50 (A549) was > 100 µM (inactive). The GI50 (COLO 205) was > 100 µM (inactive), the GI50 (KM-20L2) was > 100 µM (inactive) and the GI50 (OVCAR-8) was > 100 µM (inactive). The GI50 (DMS-273) was > 100 µM (inactive), the GI50 (KM12) was > 100 µM (inactive) and the GI50 (M14) was > 100 µM (inactive). The GI50 (HT-29) was > 100 µM (inactive), the GI50 (SF-295) was > 100 µM (inactive) and the GI50 (UACC-62) was > 100 µM (inactive). For the same compound, the GI50 (NCI-H23) was > 100 µM (inactive), the GI50 (SW-620) was > 100 µM (inactive) and the GI50 (HOP-92) was > 100 µM (inactive). The GI50 (OVCAR-3) was > 100 µM (inactive), the GI50 (MOLT-4) was > 100 µM (inactive) and the GI50 (SK-OV-3) was > 100 µM (inactive). The GI50 (XF498) was > 100 µM (inactive), the GI50 (RPMI-8226) was > 100 µM (inactive) and the GI50 (UACC-257) was > 100 µM (inactive). The GI50 (HCT-116) was > 100 µM (inactive), the GI50 (U-251) was > 100 µM (inactive) and the GI50 (SF-268) was > 100 µM (inactive). The GI50 (LXFL 529) was > 100 µM (inactive), the GI50 (SK-MEL-2) was > 100 µM (inactive) and the GI50 (A498) was > 100 µM (inactive). The GI50 (LOX IMVI) was > 100 µM (inactive), the GI50 (SNB-19) was > 100 µM (inactive) and the GI50 (CAKI-1) was > 100 µM (inactive). The GI50 (RXF 393) was > 100 µM (inactive), the GI50 (HCC 2998) was > 100 µM (inactive) and the GI50 (NCI-H460) was > 100 µM (inactive). The GI50 (SR) was > 100 µM (inactive).
For `CC(=O)OC1CC2C(C)(C)OC(=O)CC(OC(C)=O)[C@]2(C)C2CCC3(C)C(=CCC3c3ccoc3)[C@]12C` (some centres not stated), the GI50 (786-0) was 19.4 µM (inactive), the GI50 (K562) was 14 µM (inactive) and the GI50 (ACHN) was 25.1 µM (inactive). For the same compound, the GI50 (IGROV-1) was 24.5 µM (inactive), the GI50 (HOP-62) was 24 µM (inactive) and the GI50 (HCT-15) was 26.2 µM. The GI50 (HL-60) was 16.1 µM (inactive), the GI50 (DMS-114) was 19.6 µM (inactive) and the GI50 (SNB-78) was 48.9 µM (inactive). For the same compound, the GI50 (UO-31) was 23.9 µM (inactive), the GI50 (M19-MEL) was 17.5 µM (inactive) and the GI50 (SK-MEL-28) was 94.6 µM (inactive). The GI50 (CCRF-CEM) was 18.2 µM (inactive), the GI50 (DLD-1) was 13 µM (inactive) and the GI50 (NCI-H226) was 14.9 µM (inactive). For the same compound, the GI50 (SNB-75) was 18.3 µM (inactive), the GI50 (OVCAR-4) was 46.5 µM (inactive) and the GI50 (NCI-H522) was 15.6 µM (inactive). The GI50 (TK-10) was 49 µM (inactive), the GI50 (SF-539) was 26.8 µM (inactive) and the GI50 (SN12C) was 32.6 µM (inactive). For the same compound, the GI50 (SK-MEL-5) was 21.4 µM (inactive), the GI50 (OVCAR-5) was 32.8 µM (inactive) and the GI50 (Malme-3M) was 25.6 µM (inactive). For the same compound, the GI50 (A549) was 19.4 µM (inactive), the GI50 (COLO 205) was 14.1 µM (inactive) and the GI50 (KM-20L2) was 28.1 µM (inactive). For the same compound, the GI50 (OVCAR-8) was 18.1 µM (inactive), the GI50 (DMS-273) was 13.7 µM (inactive) and the GI50 (KM12) was 30.6 µM (inactive). For the same compound, the GI50 (M14) was 18.9 µM (inactive), the GI50 (HT-29) was 15.7 µM (inactive) and the GI50 (SF-295) was 18 µM (inactive). The GI50 (UACC-62) was 22.2 µM (inactive), the GI50 (NCI-H23) was 27.2 µM (inactive) and the GI50 (SW-620) was 32.1 µM (inactive). The GI50 (HOP-92) was 6.32 µM (inactive), the GI50 (OVCAR-3) was 16.2 µM (inactive) and the GI50 (MOLT-4) was 5.9 µM (inactive). The GI50 (SK-OV-3) was 21.7 µM (inactive), the GI50 (XF498) was 13.8 µM (inactive) and the GI50 (RPMI-8226) was 18.2 µM (inactive). For the same compound, the GI50 (HCT-116) was 14.4 µM (inactive), the GI50 (U-251) was 37.6 µM (inactive) and the GI50 (SF-268) was 21.1 µM (inactive). The GI50 (LXFL 529) was 13.9 µM (inactive), the GI50 (EKVX) was 15.5 µM (inactive) and the GI50 (SK-MEL-2) was 10.9 µM (inactive). For the same compound, the GI50 (A498) was 17.6 µM (inactive), the GI50 (LOX IMVI) was 28.7 µM (inactive) and the GI50 (SNB-19) was 14.3 µM (inactive). The GI50 (CAKI-1) was 31.3 µM (inactive), the GI50 (RXF 393) was 24 µM (inactive) and the GI50 (HCC 2998) was 18.4 µM (inactive). The GI50 (NCI-H460) was 21.4 µM (inactive) and the GI50 (SR) was 8.15 µM (inactive).
